2 compounds from patent US20230128120A1, “OMEGA MURICHOLIC ACID AS A PREGNANE X RECEPTOR LIGAND FOR TREATING HEPATO-INTESTINAL DISEASES” (University of Washington, priority 2021, published 2023) can be followed below.

Holding throughout (format): cell-based
For one data set, the target named is T1, human PXR (Homo sapiens, UniProt O75469).
T1 sequence (O75469 1-434): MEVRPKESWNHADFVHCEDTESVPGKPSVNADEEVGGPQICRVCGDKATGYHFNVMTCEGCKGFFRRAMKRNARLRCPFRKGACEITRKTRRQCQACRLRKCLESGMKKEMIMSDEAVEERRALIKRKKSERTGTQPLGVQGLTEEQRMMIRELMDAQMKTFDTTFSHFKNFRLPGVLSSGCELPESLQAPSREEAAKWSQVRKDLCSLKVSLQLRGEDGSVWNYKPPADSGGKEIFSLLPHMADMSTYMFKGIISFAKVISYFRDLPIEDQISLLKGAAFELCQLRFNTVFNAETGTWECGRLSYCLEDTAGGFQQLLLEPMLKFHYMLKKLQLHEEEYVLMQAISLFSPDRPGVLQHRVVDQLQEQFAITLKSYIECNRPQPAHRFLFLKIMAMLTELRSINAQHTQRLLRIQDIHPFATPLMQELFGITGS
The data set can be described thus: Reporter assay in LS intestinal cells transfected with human PXR + reporter. The note with it: 24 h incubation, dose-response, up to the maximum tested concentration, four cell passages. How it is done:
Reporter assay was performed using LS intestinal cells transfected with human PXR + reporter. Incubation time was 24 h and a dose-response curve was plotted. Results were confirmed using four different cells passages.
Percent displacement of reporter from human PXR as a function of MDCA concentration was evaluated and the results are shown in FIG. 9.
A reporter assay was performed using LS intestinal cells transfected with human PXR + reporter. Incubation time was 24 h and a dose-response curve was plotted. Results were confirmed using four different cells passages.

The target of a further data set is T2, mouse PXR (mPXR) (Mus musculus, UniProt O54915).
T2 construct: expressed in transfected cells
T2 sequence (O54915 1-431): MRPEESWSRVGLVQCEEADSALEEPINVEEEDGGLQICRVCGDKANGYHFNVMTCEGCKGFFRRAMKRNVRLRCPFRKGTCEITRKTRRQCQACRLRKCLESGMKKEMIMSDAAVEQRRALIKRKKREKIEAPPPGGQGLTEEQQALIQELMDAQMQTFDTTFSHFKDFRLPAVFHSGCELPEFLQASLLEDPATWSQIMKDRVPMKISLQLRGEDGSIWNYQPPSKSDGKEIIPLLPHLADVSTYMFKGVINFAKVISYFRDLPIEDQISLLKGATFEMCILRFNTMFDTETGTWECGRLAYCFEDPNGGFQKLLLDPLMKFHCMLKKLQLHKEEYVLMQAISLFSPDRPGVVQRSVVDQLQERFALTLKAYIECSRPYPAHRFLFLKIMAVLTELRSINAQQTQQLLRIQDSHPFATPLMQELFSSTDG
The experiment in a line: Luciferase reporter assay with mouse PXR (mPXR) plasmid. The note with it: in vitro at 1 µM and 10 µM. From the text:
(§1) Data are expressed as average of relative luciferase units among the technical triplicates ± S.E. Asterisks (*) represent statistically significant difference as compared to the vehicle group (one-way ANOVA followed by Duncan’s post hoc test, p < 0.05).
(§2) The prototypical mPXR ligand pregnenolone 16α-carbonitrile (PCN) was used as a positive control (FIG. 4B right panel). […] The prototypical hPXR ligand rifampicin (Rif) was used as a positive control (FIG. 4B left panel).

In the next data set the target is T3, human PXR (hPXR) (Homo sapiens, UniProt O75469).
T3 construct: expressed in transfected cells
T3 sequence (O75469 1-434): T1 sequence (O75469 1-434)
The experiment in a line: Luciferase reporter assay with human PXR (hPXR) plasmid. The note with it: in vitro at 5 µM.
From the text: as §1, §2

SMILES strings stand for the structures. Entries after “also recorded” stand apart in the source; their conditions may differ.

Consider `C[C@H](CCC(=O)O)[C@H]1CC[C@H]2[C@@H]3C[C@H](O)[C@@H]4C[C@H](O)CC[C@]4(C)[C@H]3CC[C@]12C` [murideoxycholic acid], for which the “binding affinity towards PXR (percent displacement of reporter from human PXR)” value at human PXR (listed as MDCA) is “no binding affinity; also recorded: totally inactive”.
On to `C[C@H](CCC(=O)O)[C@H]1CC[C@H]2[C@@H]3[C@@H](O)[C@H](O)[C@@H]4C[C@H](O)CC[C@]4(C)[C@H]3CC[C@]12C` [omega muricholic acid, ω-muricholic acid], for which the “mPXR activation (relative luciferase units vs vehicle)” value at mouse PXR (mPXR) is reported as “activated”. For the same compound, the “hPXR activation (relative luciferase units vs vehicle)” value at human PXR (hPXR) is “weakly activated”. Also, the “binding affinity towards PXR (percent displacement of reporter from human PXR)” value on human PXR was “effective binding”.
